Results reported in patent publication US11299468B2, “Methods for producing 5-(halomethyl)furfural” (Origin Materials Operating, Inc., priority 2013, dated 2022).

Experiment: Partition coefficient screen of CMF between organic phase and acidic brine
Format: physicochemical
Method: The solvent system used in the methods and compositions described herein may also be selected based on the partition coefficient of the 5-(halomethyl)furfural in the reaction mixture. As used herein, “partition coefficient” refers to the ratio of molar concentration of 5-(halomethyl)furfural in the organic phase to 5-(halomethyl)furfural in the aqueous phase in the reaction mixture.
[…] […] A 1 mL sample was removed from each phase. The microwave vial was then resealed, and re-shaken.
The 1 mL samples were added to volumetric flasks, where the acidic brine solution was diluted with THF and an amount of 37% HCl (˜3 mL) sufficient to eliminate the formation of a biphase with THF. The organic phase sample was diluted with toluene. The dilutions were then put into 1 dram vials and saved.
Further sampling of each phase was repeated every […] for the duration of each 4-hour experiment resulting in a total of 6 samples per experiment. Throughout the course of the experiment the microwave vial was shaken every 20 minutes to promote contact between the two phases. The 6 samples of each experiment in this Example were then taken from the 1 dram vials and put into 1.5 ml vials and submitted to HPLC for CMF analysis.

[1] = No. 1, organic Toluene, aqueous HCl (11.66N), 25 °C
[2] = No. 2, organic Toluene, aqueous 1N H+ 11N Li+ 12N Cl−, 24.6 °C
[3] = No. 3, organic Toluene, aqueous 6N H+ 6N Li+ 12N Cl−, 25 °C
[4] = No. 4, organic Toluene, aqueous 2N H+ 10N Li+ 12N Cl−, 29.7 °C
[5] = No. 5, organic Toluene, aqueous 1N H+ 11N Li+ 12N Cl−, 50 °C
[6] = No. 6, organic Toluene, aqueous 6N H+ 6N Li+ 12N Cl−, 50 °C
[7] = No. 7, organic Toluene, aqueous 2N H+ 10N Li+ 12N Cl−, 50 °C
[8] = No. 8, organic Toluene, aqueous 2N H+ 4N Mg2+ 12N Cl−, 23.6 °C
[9] = No. 9, organic Toluene, aqueous 2N H+ 4M sodium triflate 2M Cl−, 27.1 °C
[10] = No. 10, organic Toluene, aqueous 2M H+ 10M Na+ 12M Cl−, 24.6 °C
[11] = No. 11, organic Toluene, aqueous 2M H+ 1:1 12M LiCl:saturated NaCl, 24.1 °C
[12] = No. 12, organic Toluene, aqueous 2M H+ saturated KCl, 24.2 °C
[13] = No. 13, organic Toluene, aqueous 2M H+ 1:1 12M LiCl:saturated KCl, 24.8 °C
[14] = No. 14, organic Toluene, aqueous 2M H+ 1:2 12M LiCl:saturated NaCl, 24.5 °C
[15] = No. 15, organic Toluene, aqueous 2M H+ 1:2 12M LiCl:saturated KCl, 24.5 °C
[16] = No. 16, organic Toluene, aqueous 2M H+ 1:1 12M LiCl:saturated MgCl2, 22 °C
[17] = No. 17, organic Toluene, aqueous 2M H+ 10M Zn2+ 24M Cl−, 22 °C
[18] = No. 18, organic Toluene, aqueous 2M H+ 4.13M Ca2+ 12.2M Cl−, 27 °C
[19] = No. 19, organic Toluene, aqueous 2M H+ 6M Ca2+ 14M Cl−, 27 °C
[20] = No. 20, organic Toluene, aqueous 2M H+ 4.13M Ca2+ 12.2M Cl−, 50 °C
[21] = No. 21, organic Toluene, aqueous 2M H+ 6M Ca2+ 14M Cl−, 50 °C
[22] = No. 22, organic Toluene, aqueous 2M H+ Satd. Rb, 24.5 °C
[23] = No. 23, organic Toluene, aqueous 2M H+ Satd. Cs, 24.5 °C
[24] = No. 24, organic Cepsa ® 550Q, aqueous 6N H+ 6N Li+ 12N Cl−, 23.3 °C
[25] = No. 25, organic Cepsa ® 550Q, aqueous 1N H+ 11N Li+ 12N Cl−, 24.5 °C
[26] = No. 26, organic Cepsa ® 900Q, aqueous 1N H+ 11N Li+ 12N Cl−, 22.8 °C
[27] = No. 27, organic Cepsa ® 900Q, aqueous 6N H+ 6N Li+ 12N Cl−, 26.5 °C
[28] = No. 28, organic Santovac ®-5, aqueous 1N H+ 11N Li+ 12N Cl−, 27.2 °C
[29] = No. 29, organic Santovac ®-5, aqueous 6N H+ 6N Li+ 12N Cl−, 23.7 °C
[30] = No. 30, organic Santovac ®-5, aqueous 2N H+ 10N Li+ 12N Cl−, 28.1 °C
[31] = No. 31, organic Santovac ®-5, aqueous 1N H+ 11N Li+ 12N Cl−, 50 °C
[32] = No. 32, organic Santovac ®-5, aqueous 6N H+ 6N Li+ 12N Cl−, 50 °C
[33] = No. 33, organic Santovac ®-5, aqueous 2N H+ 10N Li+ 12N Cl−, 50 °C
[34] = No. 34, organic Dichloroethane (4 mL), aqueous 37% HCl (4 mL), 28.5 °C
[35] = No. 35, organic Dichloroethane (17.6 mL), aqueous 37% HCl (4 mL), 28.5 °C

Normalized ratio (organic:aqueous) [1]: 3.0
log PC [1]: 0.48
Normalized ratio (organic:aqueous) [2]: 144.0
log PC [2]: 2.16
Normalized ratio (organic:aqueous) [3]: 17.4
log PC [3]: 1.24
Normalized ratio (organic:aqueous) [4]: 72.9
log PC [4]: 1.86
Normalized ratio (organic:aqueous) [5]: 110.0
log PC [5]: 2.04
Normalized ratio (organic:aqueous) [6]: 18.9
log PC [6]: 1.27
Normalized ratio (organic:aqueous) [7]: 79.6
log PC [7]: 1.9
Normalized ratio (organic:aqueous) [8]: 61.3
log PC [8]: 1.78
Normalized ratio (organic:aqueous) [9]: 8.3
log PC [9]: 0.92
Normalized ratio (organic:aqueous) [10]: 66.1
log PC [10]: 1.82
Normalized ratio (organic:aqueous) [11]: 90.1
log PC [11]: 1.95
Normalized ratio (organic:aqueous) [12]: 222.0
log PC [12]: 2.34
Normalized ratio (organic:aqueous) [13]: 71.1
log PC [13]: 1.85
Normalized ratio (organic:aqueous) [14]: 100.0
log PC [14]: 2
Normalized ratio (organic:aqueous) [15]: 119.0
log PC [15]: 2.07
Normalized ratio (organic:aqueous) [16]: 68.0
log PC [16]: 1.83
Normalized ratio (organic:aqueous) [17]: 0.6
log PC [17]: −0.23
Normalized ratio (organic:aqueous) [18]: 73.8
log PC [18]: 1.87
Normalized ratio (organic:aqueous) [19]: 80.0
log PC [19]: 1.9
Normalized ratio (organic:aqueous) [20]: 82.6
log PC [20]: 1.91
Normalized ratio (organic:aqueous) [21]: 141.7
log PC [21]: 2.15
Normalized ratio (organic:aqueous) [22]: 74.7
log PC [22]: 1.87
Normalized ratio (organic:aqueous) [23]: 41.3
log PC [23]: 1.61
Normalized ratio (organic:aqueous) [24]: 1.6
log PC [24]: 1.61
Normalized ratio (organic:aqueous) [25]: 20.3
log PC [25]: 1.31
Normalized ratio (organic:aqueous) [26]: 10.2
log PC [26]: 1.01
Normalized ratio (organic:aqueous) [27]: 0.9
log PC [27]: −0.04
Normalized ratio (organic:aqueous) [28]: 60.7
log PC [28]: 1.78
Normalized ratio (organic:aqueous) [29]: 6.6
log PC [29]: 0.82
Normalized ratio (organic:aqueous) [30]: 43.7
log PC [30]: 1.64
Normalized ratio (organic:aqueous) [31]: 65.6
log PC [31]: 1.81
Normalized ratio (organic:aqueous) [32]: 10.3
log PC [32]: 1.01
Normalized ratio (organic:aqueous) [33]: 55.9
log PC [33]: 1.74
Normalized ratio (organic:aqueous) [34]: 10.9
log PC [34]: 1.03
Normalized ratio (organic:aqueous) [35]: 11.6
log PC [35]: 1.7
Structure (SMILES): O=Cc1ccc(CCl)o1 [CMF, 5-(chloromethyl)furfural]
